Data from publication PMC6738096 (British Journal of Cancer, 2019).
Entries after “also recorded” stand apart in the source; their conditions may differ.

Experiment: Phase 1 dose-escalation trial: safety and tolerability (TEAEs, SAEs, DLT, MTD, RP2D)
Settings: for Patients with any AE leading to death: none deemed related to treatment
[1] = safety population, regardless of causality

Procedure: Endpoints included the incidence of DLTs (defined in the ‘Safety' section) in the first 28-day treatment cycle (cycle 1), the frequency and severity of adverse events (AEs) and serious AEs (SAEs) and changes in laboratory values, vital signs, physical examination findings and Eastern Cooperative Oncology Group (ECOG) performance status (PS).
The starting dose was 30 mg, which was determined by review of nonclinical toxicokinetic assessments. A treatment cycle comprised 28 days in the absence of disease progression or unacceptable toxicity. Patients received starting doses ranging from 30 mg once every 24 hours (Q24h) to 480 mg Q24h, and escalation proceeded based on a 3 + 3 design.
The subsequent cohort started at a reduced dosing regimen. Additional dosing schedules were once every 12 hours (Q12h) at 30 and 60 mg and once every 8 hours (Q8h) at 20 and 40 mg.
Toxicities were graded and recorded according to NCI CTCAE version 4.03. Patients were assessed for DLTs during the first 28-day cycle. A DLT was defined as any grade ≥ 3 nonhaematologic toxicity, according to NCI CTCAE version 4.03.

With CC(C)NC(=O)[C@H]1CC[C@@H](n2c(NC(=O)c3ccc(F)cc3)nc3ccc(CN4CCC(C(C)(C)O)CC4)cc32)CC1 [TSR-011] the “SAE: Bone pain” value (40 mg Q8h (n = 31)) was 0 n (%), the “SAE: Deep-vein thrombosis” value (40 mg Q8h (n = 31)) was 0 n (%) and the “SAE: Dehydration” value (40 mg Q8h (n = 31)) was 0 n (%). The “SAE: Disease progression” value (40 mg Q8h (n = 31)) was 2 (6.5) n (%), the “SAE: Dyspnoea” value (40 mg Q8h (n = 31)) was 0 n (%) and the “SAE: Gastric haemorrhage” value (40 mg Q8h (n = 31)) was 0 n (%). The “SAE: Gastric ulcer helicobacter” value (40 mg Q8h (n = 31)) was 1 (3.2) n (%), the “SAE: Infection” value (40 mg Q8h (n = 31)) was 1 (3.2) n (%) and the “SAE: Lower respiratory tract infection” value (40 mg Q8h (n = 31)) was 1 (3.2) n (%). The “SAE: Mastoiditis” value (40 mg Q8h (n = 31)) was 0 n (%), the “SAE: Mental impairment” value (40 mg Q8h (n = 31)) was 0 n (%) and the “SAE: Metastases to the central nervous system” value (40 mg Q8h (n = 31)) was 1 (3.2) n (%). The “SAE: Pericardial effusion” value (40 mg Q8h (n = 31)) was 1 (3.2) n (%), the “SAE: Pleural effusion” value (40 mg Q8h (n = 31)) was 1 (3.2) n (%) and the “SAE: Pneumonia” value (40 mg Q8h (n = 31)) was 1 (3.2) n (%). The “SAE: Portal vein thrombosis” value (40 mg Q8h (n = 31)) was 0 n (%), the “SAE: Seizure” value (40 mg Q8h (n = 31)) was 1 (3.2) n (%) and the “SAE: Subarachnoid haemorrhage” value (40 mg Q8h (n = 31)) was 1 (3.2) n (%). For the same molecule, the “Total number of TEAEs” value (40 mg Q8h (n = 31)) was 167, the “Total number of treatment-emergent SAEs” value (40 mg Q8h (n = 31)) was 16 and the “Patients with any AE leading to death” value (40 mg Q8h (n = 31)) was 2 (6.5) Number (%). The “Grade ≥ 3 pneumonitis or hypoxia” value (40 mg TID) was “no grade ≥ 3 pneumonitis or hypoxia was observed”, the “Grade 3 ECG QTc prolongation within the DLT period” value (320 mg Q24h cohort, an additional patient determined retrospectively) was “One patient” and the DLTs (30-, 60-, 120- and 240-mg IR Q24h cohorts) was “none of the patients experienced DLTs”. The “Maximum tolerated dose (MTD)” value (320- and 480-mg Q24h doses) was “exceeded the maximum tolerated dose; also recorded: exceeded the MTD”, the “Grade 3 QTc prolongation” value (480-mg Q24h cohort) was “two of four patients” and the “Drug-related TEAE: Abnormal dreams” value (All patients (N = 72)) was 2 (2.8) n (%). For the same molecule, the “Drug-related TEAE: Anaemia” value (All patients (N = 72)) was 2 (2.8) n (%), the “Drug-related TEAE: Asthenia” value (All patients (N = 72)) was 2 (2.8) n (%) and the “Drug-related TEAE: Constipation” value (All patients (N = 72)) was 5 (6.9) n (%). The “Drug-related TEAE: Decreased appetite” value (All patients (N = 72)) was 4 (5.6) n (%), the “Drug-related TEAE: Diarrhoea” value (All patients (N = 72)) was 3 (4.2) n (%) and the “Drug-related TEAE: Dysaesthesia” value (All patients (N = 72)) was 2 (2.8) n (%). The “Drug-related TEAE: Dysgeusia” value (All patients (N = 72)) was 3 (4.2) n (%), the “Drug-related TEAE: Electrocardiogram QTc prolonged” value (All patients (N = 72)) was 12 (16.7) n (%) and the “Drug-related TEAE: Fatigue” value (All patients (N = 72)) was 4 (5.6) n (%). For the same molecule, the “Drug-related TEAE: Headache” value (All patients (N = 72)) was 3 (4.2) n (%), the “Drug-related TEAE: Hot flush” value (All patients (N = 72)) was 2 (2.8) n (%) and the “Drug-related TEAE: Increased transaminases” value (All patients (N = 72)) was 2 (2.8) n (%). For the same molecule, the “Drug-related TEAE: Insomnia” value (All patients (N = 72)) was 2 (2.8) n (%), the “Drug-related TEAE: Myalgia” value (All patients (N = 72)) was 2 (2.8) n (%) and the “Drug-related TEAE: Nausea” value (All patients (N = 72)) was 3 (4.2) n (%). For the same molecule, the “Drug-related TEAE: Peripheral oedema” value (All patients (N = 72)) was 3 (4.2) n (%), the “Drug-related TEAE: Rash” value (All patients (N = 72)) was 2 (2.8) n (%) and the “Drug-related TEAE: Vomiting” value (All patients (N = 72)) was 4 (5.6) n (%). The “Grade 3 TEAE: Anaemia” value (All patients (N = 72)) was 5 (6.9) n (%), the “Grade 3 TEAE: Ascites” value (All patients (N = 72)) was 2 (2.8) n (%) and the “Grade 3 TEAE: Asthenia” value (All patients (N = 72)) was 3 (4.2) n (%). For the same molecule, the “Grade 3 TEAE: Dyspnoea” value (All patients (N = 72)) was 3 (4.2) n (%), the “Grade 3 TEAE: Electrocardiogram QTc prolonged” value (All patients (N = 72)) was 4 (5.6) n (%) and the “Grade 3 TEAE: Fatigue” value (All patients (N = 72)) was 2 (2.8) n (%). The “Grade 3 TEAE: Metastases to the central nervous system” value (All patients (N = 72)) was 2 (2.8) n (%), the “Patients with any TEAE” value (All patients (N = 72)) was 70 (97.2) Number (%) and the “Patients with any TEAE leading to treatment discontinuation” value (All patients (N = 72)) was 11 (15.3) Number (%). The “Patients with any serious TEAE” value (All patients (N = 72)) was 28 (38.9) Number (%), the “Patients with any study drug-related TEAE” value (All patients (N = 72)) was 40 (55.6) Number (%) and the “Patients with ≥ 1 treatment-emergent SAE” value (All patients (N = 72)) was 28 (38.9) n (%). The “SAE class: Blood and lymphatic system disorders” value (All patients (N = 72)) was 2 (2.8) n (%), the “SAE class: Cardiac disorders” value (All patients (N = 72)) was 1 (1.4) n (%) and the “SAE class: Gastrointestinal disorders” value (All patients (N = 72)) was 5 (6.9) n (%). For the same molecule, the “SAE class: General disorders and administration-site conditions” value (All patients (N = 72)) was 7 (9.7) n (%), the “SAE class: Hepatobiliary disorders” value (All patients (N = 72)) was 1 (1.4) n (%) and the “SAE class: Infections and infestations” value (All patients (N = 72)) was 5 (6.9) n (%). The “SAE class: Metabolism and nutrition disorders” value (All patients (N = 72)) was 1 (1.4) n (%), the “SAE class: Musculoskeletal and connective tissue disorders” value (All patients (N = 72)) was 1 (1.4) n (%) and the “SAE class: Neoplasms benign, malignant and unspecified (including cysts and polyps)” value (All patients (N = 72)) was 3 (4.2) n (%). The “SAE class: Nervous system disorders” value (All patients (N = 72)) was 8 (11.1) n (%), the “SAE class: Respiratory, thoracic and mediastinal disorders” value (All patients (N = 72)) was 4 (5.6) n (%) and the “SAE class: Vascular disorders” value (All patients (N = 72)) was 1 (1.4) n (%). For the same molecule, the “SAE: Abdominal pain” value (All patients (N = 72)) was 1 (1.4) n (%), the “SAE: Anaemia” value (All patients (N = 72)) was 2 (2.8) n (%) and the “SAE: Asthenia” value (All patients (N = 72)) was 1 (1.4) n (%). The “SAE: Basal cell carcinoma” value (All patients (N = 72)) was 1 (1.4) n (%), the “SAE: Bone pain” value (All patients (N = 72)) was 1 (1.4) n (%) and the “SAE: Deep-vein thrombosis” value (All patients (N = 72)) was 1 (1.4) n (%). The “SAE: Dehydration” value (All patients (N = 72)) was 1 (1.4) n (%), the “SAE: Disease progression” value (All patients (N = 72)) was 6 (8.3) n (%) and the “SAE: Dyspnoea” value (All patients (N = 72)) was 3 (4.2) n (%). For the same molecule, the “SAE: Gastric haemorrhage” value (All patients (N = 72)) was 1 (1.4) n (%), the “SAE: Gastric ulcer helicobacter” value (All patients (N = 72)) was 1 (1.4) n (%) and the “SAE: Infection” value (All patients (N = 72)) was 1 (1.4) n (%). The “SAE: Lower respiratory tract infection” value (All patients (N = 72)) was 1 (1.4) n (%), the “SAE: Mastoiditis” value (All patients (N = 72)) was 1 (1.4) n (%) and the “SAE: Mental impairment” value (All patients (N = 72)) was 2 (2.8) n (%). For the same molecule, the “SAE: Metastases to the central nervous system” value (All patients (N = 72)) was 2 (2.8) n (%), the “SAE: Pericardial effusion” value (All patients (N = 72)) was 1 (1.4) n (%) and the “SAE: Pleural effusion” value (All patients (N = 72)) was 1 (1.4) n (%). The “SAE: Pneumonia” value (All patients (N = 72)) was 1 (1.4) n (%), the “SAE: Portal vein thrombosis” value (All patients (N = 72)) was 1 (1.4) n (%) and the “SAE: Seizure” value (All patients (N = 72)) was 2 (2.8) n (%). The “SAE: Subarachnoid haemorrhage” value (All patients (N = 72)) was 1 (1.4) n (%), the “Total number of TEAEs” value (All patients (N = 72)) was 621 and the “Total number of treatment-emergent SAEs” value (All patients (N = 72)) was 49. For the same molecule, the “Patients with any AE leading to death” value (All patients (N = 72)) was 6 (8.3) Number (%), the “Most common grade 3–4 TEAEs, patients” value (RP2D 40 mg Q8h) was 3.2–6.5% and the “Recommended phase 2 dose (RP2D)” value (every 8 hours (Q8h, TID), IR) was 40 mg. For the same molecule, the “Grade 3 TEAEs, patients” value (safety population) was 51.4%, the “Grade 4 TEAE of anaemia” value (safety population) was “One patient” and the “SAE disease progression, patients” value (safety population) was 8.3%. The “Study drug-related SAE, patients” value (safety population) was 1.4%, the “Study drug-related TEAEs, patients” value (safety population) was 55.6% and the “TEAEs leading to study drug discontinuation, patients” value (safety population) was 15.3%. The “TEAEs of grade 1 severity” value (safety population) was 64 % of events, the “Treatment-emergent SAEs, patients” value (safety population) was 38.9% and the “Patients with ≥ 1 TEAE” value (safety population (N = 72)) was 97.2%. For the same molecule, the “TEAE QTc prolongation, patients” value [1] was 18.1%, the “TEAE anaemia, patients” value [1] was 15.3% and the “TEAE asthenia, patients” value [1] was 15.3%. The “TEAE class gastrointestinal disorders, patients” value [1] was 61.1%, the “TEAE class general disorders and administration-site conditions, patients” value [1] was 50.0% and the “TEAE constipation, patients” value [1] was 19.4%. For the same molecule, the “TEAE decreased appetite, patients” value [1] was 15.3%, the “TEAE diarrhoea, patients” value [1] was 18.1% and the “TEAE fatigue, patients” value [1] was 19.4%. The “TEAE headache, patients” value [1] was 15.3% and the “TEAE vomiting, patients” value [1] was 18.1%.
